Molecular target: T1, ALK2 (Homo sapiens, UniProt Q04771)
T1 construct: purchased ThermoFisher Scientific (Life Technologies)
T1 sequence (Q04771 21-509): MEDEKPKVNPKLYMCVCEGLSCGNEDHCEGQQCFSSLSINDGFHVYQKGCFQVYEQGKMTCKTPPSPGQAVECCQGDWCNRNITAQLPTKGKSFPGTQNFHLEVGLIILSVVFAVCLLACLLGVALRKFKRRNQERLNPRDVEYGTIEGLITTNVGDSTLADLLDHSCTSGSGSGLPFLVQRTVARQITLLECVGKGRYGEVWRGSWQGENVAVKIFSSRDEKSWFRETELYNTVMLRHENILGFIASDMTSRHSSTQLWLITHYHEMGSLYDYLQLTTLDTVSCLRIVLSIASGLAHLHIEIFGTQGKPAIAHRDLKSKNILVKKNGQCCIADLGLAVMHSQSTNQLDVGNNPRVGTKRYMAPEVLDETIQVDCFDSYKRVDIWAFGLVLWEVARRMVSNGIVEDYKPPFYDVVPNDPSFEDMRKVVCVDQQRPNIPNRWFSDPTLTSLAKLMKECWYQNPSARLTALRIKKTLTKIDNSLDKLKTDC
Assay: LanthaScreen Eu Kinase Binding Assay, ALK2 inhibition
Conditions: 1 micromolar concentration
Method: Biochemical assays to measure the inhibitory effects of the compounds were performed by ThermoFisher Scientific (Life Technologies). ALK2 inhibition was tested using LanthaScreen™ Eu Kinase Binding Assay screening protocol.

Inhibition at 1 µM, > 50%:
COc1cc(-n2cnc(Nc3nc(C(C)C)nc4c3cnn4C(C)C)c2)cc(OC)c1OC [Compound 4a, 1,6-diisopropyl-N-(1-(3,4,5-trimethoxyphenyl)-1H-imidazol-4-yl)-1H-pyrazolo[3,4-d]pyrimidin-4-amine]
CCCCCC(C)c1nc(Nc2cn(-c3cc(OC)c(OC)c(OC)c3)cn2)c2cnn(C(C)C)c2n1 (stereo not shown) [Compound 59e, 6-(heptan-2-yl)-1-isopropyl-N-(1-(3,4,5-trimethoxyphenyl)-1H-imidazol-4-yl)-1H-pyrazolo[3,4-d]pyrimidin-4-amine]
COc1cc(-n2cnc(Nc3nc(C(C)C)nc4c3cnn4CC3CC3)c2)cc(OC)c1OC [Compound 17c, 1-(cyclopropylmethyl)-6-isopropyl-N-(1-(3,4,5-trimethoxyphenyl)-1H-imidazol-4-yl)-1H-pyrazolo[3,4-d]pyrimidin-4-amine]
COc1cc(-n2cnc(Nc3nc(C4CC(F)(F)C4)nc4c3cnn4C(C)C)c2)cc(OC)c1OC [Compound 28e, 6-(3,3-difluorocyclobutyl)-1-isopropyl-N-(1-(3,4,5-trimethoxyphenyl)-1H-imidazol-4-yl)-1H-pyrazolo[3,4-d]pyrimidin-4-amine]
COc1cc(-n2cnc(Nc3nc(C(C)C)nc4c3ncn4C(C)C)c2)cc(OC)c1OC [Compound 94a, 2,9-diisopropyl-N-(1-(3,4,5-trimethoxyphenyl)-1H-imidazol-4-yl)-9H-purin-6-amine]
C=C(C)c1nc(Nc2cn(-c3cc(OC)c(OC)c(OC)c3)cn2)nc2ccsc12 [Compound 53c, 4-(prop-1-en-2-yl)-N-(1-(3,4,5-trimethoxyphenyl)-1H-imidazol-4-yl)thieno[3,2-d]pyrimidin-2-amine]
COc1cc(-n2cnc(Nc3nc(C4CC4)nc4c3cnn4CC(C)C)c2)cc(OC)c1OC [Compound 117e, 6-cyclopropyl-1-isobutyl-N-(1-(3,4,5-trimethoxyphenyl)-1H-imidazol-4-yl)-1H-pyrazolo[3,4-d]pyrimidin-4-amine]
COc1cc(-n2cnc(Nc3nc(C4CC4)nc4c3cnn4C3CC3)c2)cc(OC)c1OC [Compound 116d, 1,6-dicyclopropyl-N-(1-(3,4,5-trimethoxyphenyl)-1H-imidazol-4-yl)-1H-pyrazolo[3,4-d]pyrimidin-4-amine]
COc1cc(-n2cnc(Nc3nc(C(C)C)c4sccc4n3)c2)cc(OC)c1OC [Compound 54a, 4-isopropyl-N-(1-(3,4,5-trimethoxyphenyl)-1H-imidazol-4-yl)thieno[3,2-d]pyrimidin-2-amine]
COc1cc2nc(Nc3cn(-c4cc(OC)c(OC)c(OC)c4)cn3)nc(C(C)C)c2cc1OC [Compound 87a, 4-isopropyl-6,7-dimethoxy-N-(1-(3,4,5-trimethoxyphenyl)-1H-imidazol-4-yl)quinazolin-2-amine]
CNCCC(C)c1nc(Nc2cn(-c3cc(OC)c(OC)c(OC)c3)cn2)c2cnn(C(C)C)c2n1 (stereo not shown) [Compound 50a, 1-isopropyl-6-(4-(methylamino)butan-2-yl)-N-(1-(3,4,5-trimethoxyphenyl)-1H-imidazol-4-yl)-1H-pyrazolo[3,4-d]pyrimidin-4-amine]
COc1cc(-n2cnc(Nc3nc(CC4CC4)nc4c3cnn4C(C)(C)C)c2)cc(OC)c1OC [Compound 119e, 1-(tert-butyl)-6-(cyclopropylmethyl)-N-(1-(3,4,5-trimethoxyphenyl)-1H-imidazol-4-yl)-1H-pyrazolo[3,4-d]pyrimidin-4-amine]
COc1cc(-n2cnc(Nc3nc(C(C)C)nn4cccc34)c2)cc(OC)c1OC [Compound 67a, 2-isopropyl-N-(1-(3,4,5-trimethoxyphenyl)-1H-imidazol-4-yl)pyrrolo[2,1-f][1,2,4]triazin-4-amine]
COc1cc(-n2cnc(Nc3nc(CC4CC4)nc4c3cnn4C)c2)cc(OC)c1OC [Compound 125e, 6-(cyclopropylmethyl)-1-methyl-N-(1-(3,4,5-trimethoxyphenyl)-1H-imidazol-4-yl)-1H-pyrazolo[3,4-d]pyrimidin-4-amine]
COc1cc(-n2cnc(Nc3nc(CC(C)C)nc4c3CCC4c3ccccc3)c2)cc(OC)c1OC (stereo not shown) [Compound 46d, 2-isobutyl-7-phenyl-N-(1-(3,4,5-trimethoxyphenyl)-1H-imidazol-4-yl)-6,7-dihydro-5H-cyclopenta[d]pyrimidin-4-amine]
COc1cc(-n2cnc(Nc3nc(C(C)C)nc4cc(C)sc34)c2)cc(OC)c1OC [Compound 85a, 2-isopropyl-6-methyl-N-(1-(3,4,5-trimethoxyphenyl)-1H-imidazol-4-yl)thieno[3,2-d]pyrimidin-4-amine]
CCOC(=O)CC(C)c1nc(Nc2cn(-c3cc(OC)c(OC)c(OC)c3)cn2)c2cnn(C(C)C)c2n1 (stereo not shown) [Compound 103c, ethyl 3-(1-isopropyl-4-((1-(3,4,5-trimethoxyphenyl)-1H-imidazol-4-yl)amino)-1H-pyrazolo[3,4-d]pyrimidin-6-yl)butanoate]
C=C(C)c1nc2c(c(Nc3cn(-c4cc(OC)c(OC)c(OC)c4)cn3)n1)CCC2 [Compound 60c, 2-(prop-1-en-2-yl)-N-(1-(3,4,5-trimethoxyphenyl)-1H-imidazol-4-yl)-6,7-dihydro-5H-cyclopenta[d]pyrimidin-4-amine]
C=C(C)c1nc(Nc2cn(-c3cc(OC)c(OC)c(OC)c3)cn2)c2ccsc2n1 [Compound 80c, 2-(prop-1-en-2-yl)-N-(1-(3,4,5-trimethoxyphenyl)-1H-imidazol-4-yl)thieno[2,3-d]pyrimidin-4-amine]
C=C(C)c1nc(Nc2cn(-c3cc(OC)c(OC)c(OC)c3)cn2)c2ncccc2n1 [Compound 78c, 2-(prop-1-en-2-yl)-N-(1-(3,4,5-trimethoxyphenyl)-1H-imidazol-4-yl)pyrido[3,2-d]pyrimidin-4-amine]
C=C(C)c1nc(Nc2cn(-c3cc(OC)c(OC)c(OC)c3)cn2)c2cccn2n1 [Compound 61c, 2-(prop-1-en-2-yl)-N-(1-(3,4,5-trimethoxyphenyl)-1H-imidazol-4-yl)pyrrolo[2,1-f][1,2,4]triazin-4-amine]
C=C(C)c1nc(Nc2cn(-c3cc(OC)c(OC)c(OC)c3)cn2)c2ncn(C(C)C)c2n1 [Compound 74c, 9-isopropyl-2-(prop-1-en-2-yl)-N-(1-(3,4,5-trimethoxyphenyl)-1H-imidazol-4-yl)-9H-purin-6-amine]
CNC(=O)CC(C)c1nc(Nc2cn(-c3cc(OC)c(OC)c(OC)c3)cn2)c2cnn(C(C)C)c2n1 (stereo not shown) [Compound 108a, 3-(1-isopropyl-4-((1-(3,4,5-trimethoxyphenyl)-1H-imidazol-4-yl)amino)-1H-pyrazolo[3,4-d]pyrimidin-6-yl)-N-methylbutanamide]
COc1cc(-n2cnc(Nc3nc(C4CCCC4)nc4c3cnn4C(C)C)c2)cc(OC)c1OC [Compound 44e, 6-cyclopentyl-1-isopropyl-N-(1-(3,4,5-trimethoxyphenyl)-1H-imidazol-4-yl)-1H-pyrazolo[3,4-d]pyrimidin-4-amine]
C=C(C)c1nc(Nc2cn(-c3cc(OC)c(OC)c(OC)c3)cn2)c2ccccc2n1 [Compound 70b, 2-(prop-1-en-2-yl)-N-(1-(3,4,5-trimethoxyphenyl)-1H-imidazol-4-yl)quinazolin-4-amine]
C=C(C)c1nc2c(c(Nc3cn(-c4cc(OC)c(OC)c(OC)c4)cn3)n1)COC2 [Compound 71c, 2-(prop-1-en-2-yl)-N-(1-(3,4,5-trimethoxyphenyl)-1H-imidazol-4-yl)-5,7-dihydrofuro[3,4-d]pyrimidin-4-amine]
COc1cc(-n2cnc(Nc3nc(C(C)C)nc4c3cnn4C3CCCC3)c2)cc(OC)c1OC [Compound 18c, 1-cyclopentyl-6-isopropyl-N-(1-(3,4,5-trimethoxyphenyl)-1H-imidazol-4-yl)-1H-pyrazolo[3,4-d]pyrimidin-4-amine]
C=C(C)c1nc(Nc2cn(-c3cc(OC)c(OC)c(OC)c3)cn2)c2cnn(C(C)C)c2n1 [Compound 3d, 1-isopropyl-6-(prop-1-en-2-yl)-N-(1-(3,4,5-trimethoxyphenyl)-1H-imidazol-4-yl)-1H-pyrazolo[3,4-d]pyrimidin-4-amine]
COc1cc(-n2cnc(Nc3nc(CO)nc4c3cnn4C(C)C)c2)cc(OC)c1OC [Compound 36e, (1-isopropyl-4-((1-(3,4,5-trimethoxyphenyl)-1H-imidazol-4-yl)amino)-1H-pyrazolo[3,4-d]pyrimidin-6-yl)methanol]
C=C(C)c1nc(Nc2cn(-c3cc(OC)c(OC)c(OC)c3)cn2)c2cc(F)ccc2n1 [Compound 95c, 6-fluoro-2-(prop-1-en-2-yl)-N-(1-(3,4,5-trimethoxyphenyl)-1H-imidazol-4-yl)quinazolin-4-amine]
COc1cc(-n2cnc(Nc3nc(CC(C)C)nc4c3CCC4)c2)cc(OC)c1OC [Compound 127b, 2-isobutyl-N-(1-(3,4,5-trimethoxyphenyl)-1H-imidazol-4-yl)-6,7-dihydro-5H-cyclopenta[d]pyrimidin-4-amine]

— patent US20240270750A1, “IMIDAZOLE-CONTAINING INHIBITORS OF ALK2 KINASE” (BioCryst Pharmaceuticals, Inc., priority 2021, published 2024)
